Here are results for 39 molecules from patent US8338565B2, “Macrocyclic compounds for inhibition of tumor necrosis factor alpha” (Ensemble Therapeutics Corporation, priority 2008, dated 2012).

Structures are written as SMILES.

T1 sequence (P01375 77-233 limits assumed, species assumed): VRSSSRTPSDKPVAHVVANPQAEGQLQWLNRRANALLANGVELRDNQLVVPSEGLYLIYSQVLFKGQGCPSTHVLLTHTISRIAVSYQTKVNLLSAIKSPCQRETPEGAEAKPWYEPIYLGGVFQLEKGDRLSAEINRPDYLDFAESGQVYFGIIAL

The first assay concerns the target T1, TNFα / TNFα receptor (TNFα R1/Fc) (Homo sapiens, UniProt P01375).
T1 construct: purchased R&D Systems
As to the kind of experiment: Inhibition of binding of TNFα to the TNFα receptor (plate ELISA competition). To be noted: Activity (IC50, inhibition of TNFα binding to TNFα R1/Fc), Table 2. Put shortly: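 Plates were coated with TNFα at 15 nM. Test compound and 8.33 nM receptor-Fc (PBST, 2% DMSO) were first mixed in solution for 30 min at room temperature, then transferred to the plates for another 30 min. Competition was read by absorbance at 450 nm after HRP anti-human IgG Fc detection with TMB.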
Background: ELISA stands for enzyme-linked immunosorbent assay.
Turning to `O=C1COc2ccc(cc2)C[C@H](C(=O)N[C@H](CCc2ccccc2)C(=O)O)NC(=O)[C@H](CCc2ccccc2)NC(=O)[C@@H](Cc2ccc(-c3ccccc3)cc2)NC(=O)[C@H](Cc2c[nH]c3ccccc23)N1` [Compound 737], the IC50 was < 10 µM.

`O=C1COc2ccc(cc2)C[C@H](C(=O)N[C@H](CCc2ccccc2)C(=O)O)NC(=O)[C@H](Cc2c[nH]c3ccccc23)NC(=O)[C@@H](Cc2ccc(-c3ccccc3)cc2)NC(=O)[C@H](Cc2ccncc2)N1` [Compound 740] showed an IC50 of 10 to 30 µM.

As to `O=C1COc2ccc(cc2)C[C@@H](C(=O)N[C@H](CCc2ccccc2)C(=O)O)NC(=O)[C@H](CCc2ccccc2)NC(=O)[C@@H](Cc2ccc(-c3ccccc3)cc2)NC(=O)[C@H](Cc2c[nH]c3ccccc23)N1` [Compound 743], the IC50 is < 10 µM.

The assay is the same for the next values; noted with them: Table 2; read-out: Activity (IC50, inhibition of TNFα binding to TNFα R1/Fc).
On to `O=C1COc2ccc(cc2)C[C@@H](C(=O)O)NC(=O)[C@H](CCc2ccccc2)NC(=O)[C@@H](Cc2ccc(-c3ccccc3)cc2)NC(=O)[C@H](Cc2cccc(C(F)(F)F)c2)N1` [Compound 690], for which the IC50 was 10 to 30 µM.

With `O=C1COc2ccc(cc2)C[C@@H](C(=O)O)NC(=O)[C@H](CCc2ccccc2)NC(=O)[C@@H](Cc2ccc(-c3ccccc3)cc2)NC(=O)[C@H](Cc2ccc(C(F)(F)F)cc2)N1` [Compound 691], the IC50 was < 10 µM.

For the molecule `Cc1ccc(C[C@@H]2NC(=O)COc3ccc(cc3)C[C@@H](C(=O)O)NC(=O)[C@H](CCc3ccccc3)NC(=O)[C@@H](Cc3ccc(-c4ccccc4)cc3)NC2=O)cc1` [Compound 692], the IC50 is < 10 µM.

In the case of `O=C1COc2ccc(cc2)C[C@@H](C(=O)O)NC(=O)[C@H](CCc2ccccc2)NC(=O)[C@@H](Cc2ccc(-c3ccccc3)cc2)NC(=O)[C@H](Cc2cn(-c3ccccc3)nn2)N1` [Compound 693], the IC50 is < 10 µM.

With `O=C1COc2ccc(cc2)C[C@@H](C(=O)O)NC(=O)[C@H](CCc2ccccc2)NC(=O)[C@@H](Cc2ccc(-c3ccccc3)cc2)NC(=O)[C@H](Cc2cccc3ccccc23)N1` [Compound 694], the IC50 was < 10 µM.

Turning to `O=C1COc2ccc(cc2)C[C@@H](C(=O)O)NC(=O)[C@H](CCc2ccccc2)NC(=O)[C@@H](Cc2ccc(-c3ccccc3)cc2)NC(=O)[C@H](Cc2ccc3ccccc3c2)N1` [Compound 695], the IC50 was < 10 µM.

Regarding `O=C1COc2ccc(cc2)C[C@@H](C(=O)O)NC(=O)[C@H](CCc2ccccc2)NC(=O)[C@@H](Cc2ccc(-c3ccccc3)cc2)NC(=O)[C@H](Cc2cscn2)N1` [Compound 696], the IC50 was < 10 µM.

With `O=C1COc2ccc(cc2)C[C@@H](C(=O)O)NC(=O)[C@H](CCc2ccccc2)NC(=O)[C@@H](Cc2ccc(-c3ccccc3)cc2)NC(=O)[C@H](Cc2ccc(Cl)cc2Cl)N1` [Compound 697], the IC50 is < 10 µM.

With `O=C1COc2ccc(cc2)C[C@@H](C(=O)O)NC(=O)[C@H](CCc2ccccc2)NC(=O)[C@@H](Cc2ccc(-c3ccccc3)cc2)NC(=O)[C@H](Cc2ccc(-c3ccc(F)cc3)cc2)N1` [Compound 698], the IC50 is < 10 µM.

Take `O=C1COc2ccc(cc2)C[C@@H](C(=O)O)NC(=O)[C@H](CCc2ccccc2)NC(=O)[C@@H](Cc2ccc(-c3ccccc3)cc2)NC(=O)[C@H](Cc2ccc(-c3ccc(Cl)cc3)cc2)N1` [Compound 702]: the IC50 is < 10 µM.

Turning to `Cn1cnc(C[C@@H]2NC(=O)COc3ccc(cc3)C[C@@H](C(=O)O)NC(=O)[C@H](CCc3ccccc3)NC(=O)[C@@H](Cc3ccc(-c4ccccc4)cc3)NC2=O)c1` [Compound 706], the IC50 fell in the range of 10 to 30 µM.

For the molecule `O=C1COc2ccc(cc2)C[C@@H](C(=O)O)NC(=O)[C@H](CCc2ccccc2)NC(=O)[C@@H](Cc2ccc(-c3ccccc3)cc2)NC(=O)[C@H](Cc2ccc(Cl)cc2)N1` [Compound 707], the IC50 is < 10 µM.

Take `O=C1Nc2ccc(cc2)C[C@H](C(=O)N[C@@H](Cc2ccccc2)C(=O)O)NC(=O)[C@@H](Cc2ccccc2)NC(=O)[C@H](Cc2ccc(-c3ccccc3)cc2)NC(=O)[C@@H](Cc2cccs2)NC(=O)C2CC12` (stereo partly drawn) [Compound 708]: the IC50 is < 10 µM.

Turning to `O=C(O)CCCNC(=O)[C@H]1Cc2ccc(cc2)OCC(=O)N[C@@H](Cc2c[nH]c3ccccc23)C(=O)N[C@H](Cc2ccc(-c3ccccc3)cc2)C(=O)N[C@@H](Cc2c[nH]c3ccccc23)C(=O)N1` [Compound 716], the IC50 is < 10 µM.

Turning to `O=C(O)CCCNC(=O)[C@H]1Cc2ccc(cc2)OCC(=O)N[C@@H](Cc2ccncc2)C(=O)N[C@H](Cc2ccc(-c3ccccc3)cc2)C(=O)N[C@@H](Cc2c[nH]c3ccccc23)C(=O)N1` [Compound 717], the IC50 lay within 10 to 30 µM.

In the case of `O=C(O)CCCNC(=O)[C@@H]1Cc2ccc(cc2)OCC(=O)N[C@@H](Cc2c[nH]c3ccccc23)C(=O)N[C@H](Cc2ccc(-c3ccccc3)cc2)C(=O)N[C@@H](Cc2ccccc2F)C(=O)N1` [Compound 718], the IC50 was < 10 µM.

As for `O=C(O)CCCNC(=O)[C@@H]1Cc2ccc(cc2)OCC(=O)N[C@@H](Cc2ccncc2)C(=O)N[C@H](Cc2ccc(-c3ccccc3)cc2)C(=O)N[C@@H](Cc2ccccc2F)C(=O)N1` [Compound 719], the IC50 was < 10 µM.

As to `O=C(O)CCCNC(=O)[C@@H]1Cc2ccc(cc2)OCC(=O)N[C@@H](Cc2c[nH]c3ccccc23)C(=O)N[C@H](Cc2ccc(-c3ccccc3)cc2)C(=O)N[C@@H](CCc2ccccc2)C(=O)N1` [Compound 720], the IC50 was < 10 µM.

In the case of `O=C(O)CCCNC(=O)[C@@H]1Cc2ccc(cc2)OCC(=O)N[C@@H](Cc2c[nH]c3ccccc23)C(=O)N[C@H](Cc2ccc(-c3ccccc3)cc2)C(=O)N[C@@H](Cc2c[nH]c3ccccc23)C(=O)N1` [Compound 721], the IC50 was < 10 µM.

`O=C(O)CCCNC(=O)[C@@H]1Cc2ccc(cc2)OCC(=O)N[C@@H](Cc2ccncc2)C(=O)N[C@H](Cc2ccc(-c3ccccc3)cc2)C(=O)N[C@@H](Cc2c[nH]c3ccccc23)C(=O)N1` [Compound 722]: the IC50 was < 10 µM.

For the molecule `O=C1COc2ccc(cc2)C[C@@H](C(=O)O)NC(=O)[C@H](CCc2ccccc2)NC(=O)[C@@H](CCc2ccccc2)NC(=O)[C@H](CCc2ccccc2)N1` [Compound 724], the IC50 is < 10 µM.

For the molecule `O=C1COc2ccc(cc2)C[C@@H](C(=O)O)NC(=O)[C@H](Cc2ccc(-c3ccccc3)cc2)NC(=O)[C@@H](Cc2ccc(-c3ccccc3)cc2)NC(=O)[C@H](CCc2ccccc2)N1` [Compound 725], the IC50 is < 10 µM.

For `O=C1COc2ccc(cc2)C[C@@H](C(=O)O)NC(=O)[C@H](Cc2ccc(-c3ccccc3)cc2)NC(=O)[C@@H](Cc2ccc(-c3ccccc3)cc2)NC(=O)[C@H](Cc2cccs2)N1` [Compound 726], the IC50 lay within 30 to 100 µM.

In the case of `O=C1COc2ccc(cc2)C[C@H](C(=O)O)NC(=O)[C@H](Cc2ccccc2F)NC(=O)[C@@H](Cc2ccc(-c3ccccc3)cc2)NC(=O)[C@H](Cc2c[nH]c3ccccc23)N1` [Compound 728], the IC50 was in the range of 10 to 30 µM.

Take `O=C1COc2ccc(cc2)C[C@H](C(=O)O)NC(=O)[C@H](Cc2ccccc2F)NC(=O)[C@@H](Cc2ccc(-c3ccccc3)cc2)NC(=O)[C@H](Cc2ccncc2)N1` [Compound 729]: the IC50 was > 100 µM.

On to `O=C1COc2ccc(cc2)C[C@H](C(=O)O)NC(=O)[C@H](CCc2ccccc2)NC(=O)[C@@H](Cc2ccc(-c3ccccc3)cc2)NC(=O)[C@H](Cc2c[nH]c3ccccc23)N1` [Compound 730], for which the IC50 is < 10 µM.

In the case of `O=C1COc2ccc(cc2)C[C@H](C(=O)O)NC(=O)[C@H](Cc2c[nH]c3ccccc23)NC(=O)[C@@H](Cc2ccc(-c3ccccc3)cc2)NC(=O)[C@H](Cc2c[nH]c3ccccc23)N1` [Compound 731], the IC50 was in the range of 10 to 30 µM.

Turning to `O=C1COc2ccc(cc2)C[C@H](C(=O)O)NC(=O)[C@H](Cc2c[nH]c3ccccc23)NC(=O)[C@@H](Cc2ccc(-c3ccccc3)cc2)NC(=O)[C@H](Cc2ccncc2)N1` [Compound 732], the IC50 was > 100 µM.

As to `O=C1COc2ccc(cc2)C[C@@H](C(=O)O)NC(=O)[C@H](Cc2ccccc2F)NC(=O)[C@@H](Cc2ccc(-c3ccccc3)cc2)NC(=O)[C@H](Cc2c[nH]c3ccccc23)N1` [Compound 733], the IC50 is < 10 µM.

On to `O=C1COc2ccc(cc2)C[C@@H](C(=O)O)NC(=O)[C@H](CCc2ccccc2)NC(=O)[C@@H](Cc2ccc(-c3ccccc3)cc2)NC(=O)[C@H](Cc2c[nH]c3ccccc23)N1` [Compound 734], for which the IC50 is < 10 µM.

In the case of `O=C1COc2ccc(cc2)C[C@H](C(=O)N[C@H](CCc2ccccc2)C(=O)O)NC(=O)[C@H](Cc2ccccc2F)NC(=O)[C@@H](Cc2ccc(-c3ccccc3)cc2)NC(=O)[C@H](Cc2c[nH]c3ccccc23)N1` [Compound 735], the IC50 lay in the range of 10 to 30 µM.

Take `O=C1COc2ccc(cc2)C[C@H](C(=O)N[C@H](CCc2ccccc2)C(=O)O)NC(=O)[C@H](Cc2ccccc2F)NC(=O)[C@@H](Cc2ccc(-c3ccccc3)cc2)NC(=O)[C@H](Cc2ccncc2)N1` [Compound 736]: the IC50 is < 10 µM.

With `O=C1COc2ccc(cc2)C[C@H](C(=O)N[C@H](CCc2ccccc2)C(=O)O)NC(=O)[C@H](CCc2ccccc2)NC(=O)[C@@H](Cc2ccc(-c3ccccc3)cc2)NC(=O)[C@H](Cc2ccncc2)N1` [Compound 738], the IC50 was < 10 µM.

As to `O=C1COc2ccc(cc2)C[C@H](C(=O)N[C@H](CCc2ccccc2)C(=O)O)NC(=O)[C@H](Cc2c[nH]c3ccccc23)NC(=O)[C@@H](Cc2ccc(-c3ccccc3)cc2)NC(=O)[C@H](Cc2c[nH]c3ccccc23)N1` [Compound 739], the IC50 is < 10 µM.

Turning to `O=C1COc2ccc(cc2)C[C@@H](C(=O)N[C@H](CCc2ccccc2)C(=O)O)NC(=O)[C@H](Cc2ccccc2F)NC(=O)[C@@H](Cc2ccc(-c3ccccc3)cc2)NC(=O)[C@H](Cc2c[nH]c3ccccc23)N1` [Compound 741], the IC50 was < 10 µM.

As to `O=C1COc2ccc(cc2)C[C@@H](C(=O)N[C@H](CCc2ccccc2)C(=O)O)NC(=O)[C@H](Cc2ccccc2F)NC(=O)[C@@H](Cc2ccc(-c3ccccc3)cc2)NC(=O)[C@H](Cc2ccncc2)N1` [Compound 742], the IC50 was < 10 µM.
